≈ marks a conversion by molar mass, not a printed value.
Columns and labels:
[1] = target: HAQ variant of human STING (Homo sapiens, UniProt Q86WV6, G230A/R293Q/R71H); assay: Luciferase (ISRE.ISG reporter) assay in HEK293T cells stably expressing HAQ hSTING; format: cell-based; settings: ISRE.ISG54 luciferase reporter, 18 hours, compared with R232 and H232
Excerpt: • a) Stable STING expressing cells. Stable HEK293T STING-expressing cell lines were generated using plasmids purchased from Invivogen, CA, USA, that contain STING cDNA cloned into the pUNO-1 vector under the hEF1-HTLV promoter as well as the Blasticidin selection cassette. The human STING plasmids corresponding to the R232, H232 and HAQ variants were directly procured from Invivogen while the AQ and Q variants were created by mismatch PCR using cDNA from HAQ.STING and R232.STING variants respectively. These vectors were individually transfected into HEK293T cells using Lipofectamine (Invitrogen) and transfected cells were expanded under Blasticidin selection. These cells were further subjected to clonal selection using the limiting dilution method to obtain clonally pure populations of HEK293T cells expressing each of the five human STING variants. Clones with minimal ligand independent activation of STING were chosen for cellular experiments. • b) N-His R232.hSTING HEK293T cells. HEK293T cells stably expressing N-His R232.hSTING were generated by the following described method. N-His R232.hSTING.pcDNA Myc B plasmid was transfected into HEK293T cells using Lipofectamine reagent (Invitrogen) and the transfected cells were selected under Hygromycin. […]

HAQ STING (THP-1 cells) = target: T1, HAQ STING (THP-1 cells) (Homo sapiens, UniProt Q86WV6, G230A/R293Q/R71H); assay: Western blot of pSTING and pIRF3 in THP-1 cells; format: cell-based; settings: immunoblot, 2 hours
T1 construct: THP1 cells constitutively express the HAQ variant of human STING; host or cells: THP-1
T1 sequence (Q86WV6 whole entry R71H/G230A/R293Q): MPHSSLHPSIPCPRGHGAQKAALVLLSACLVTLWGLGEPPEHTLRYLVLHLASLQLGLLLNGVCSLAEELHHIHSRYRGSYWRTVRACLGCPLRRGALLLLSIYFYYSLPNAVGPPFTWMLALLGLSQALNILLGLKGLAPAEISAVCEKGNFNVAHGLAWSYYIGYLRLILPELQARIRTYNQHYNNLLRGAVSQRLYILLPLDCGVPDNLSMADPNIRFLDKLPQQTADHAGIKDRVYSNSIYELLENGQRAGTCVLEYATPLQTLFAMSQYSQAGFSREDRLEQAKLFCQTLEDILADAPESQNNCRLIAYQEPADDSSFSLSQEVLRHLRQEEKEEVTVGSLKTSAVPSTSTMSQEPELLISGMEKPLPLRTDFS
Protocol: (§1) 5 x 10^5 cells were seeded in 24-well plates in 500 μl growth medium and stimulated with novel compounds at 10μM. After 2 hours of treatment cells were harvested by centrifugation and cell pellets were lysed in RIPA buffer (20mM Tris-Cl, 150mM NaCl, 0.5mM EDTA, 1% NP40, 0.05% SDS) containing 1x phosphatase inhibitor cocktail 3 (Sigma) and 1x protease inhibitor (Roche) to extract the soluble fraction of protein. 10 μg of extracted protein was electrophoresed in 10% SDS-PAGE gels and transferred onto Immobilon-P membranes (Millipore).

[2] = Solubility under assay conditions; format: physicochemical; settings: under our assay conditions; read-out: maximum solubility
[3] = target: T2, R232 variant of human STING (THP-1-Dual KI-hSTING-R232 cells) (Homo sapiens, UniProt Q86WV6, H232R); assay: Western blot of pSTING and pIRF3 in THP1-R232 knock in cells; format: cell-based; settings: immunoblot, 2 hours, R232 STING in HAQ knockout background
T2 construct: host or cells: THP-1-Dual KI-hSTING-R232
T2 sequence (Q86WV6 whole entry H232R): as the sequence (Q86WV6 whole entry R71H/G230A/R293Q) above, with H71R, A230G, H232R, Q293R counted along it
Protocol: HEK293T cells were procured from ATCC. THP-1 and THP-1-Dual KI-hSTING-R232 cells which contained the R232 version of STING was knocked in to THP1 cells in which the HAQ version was ablated, were procured from Invivogen, CA, USA.
as §1, with “(Millipore). […] Anti-rabbit HRP label secondary antibody (Abcam) and Clarity Max™ western ECL substrate (Biorad—cat# 1705062) were used for visualization of bands using a BioRad XRS plus imager.” for “(Millipore).”

[4] = target: T3, full length R232.hSTING (ER fraction of transfected HEK293T cells) (Homo sapiens, UniProt Q86WV6, H232R); assay: In vitro kinase assay, ER fraction with full length R232 STING plus recombinant TBK1; format: biochemical; settings: cell free, immunoblot
T3 construct: ER fraction (8mg/ml) containing full length STING from R232.hSTING; host or cells: ER fraction of R232.hSTING HEK293T cells
T3 sequence (Q86WV6 whole entry H232R): as the sequence (Q86WV6 whole entry R71H/G230A/R293Q) above, with H71R, A230G, H232R, Q293R counted along it
Protocol: This was followed by homogenization 3 times with a 30 sec each pulse and 1 min cooling between each pulse. Homogenates were centrifuged at 5000g for 10 min at 4 °C to remove nuclei, mitochondria and cell membrane from the cytosolic fraction. Supernatant was further centrifuged at 100000g for 1 h at 4 °C to fractionate the ER containing cytosolic fraction. The pellet thus obtained was resuspended in homogenization buffer and washed by centrifugation at 100000g twice. Post washing, the ER fraction containing pellet was resuspended in ER buffer (final composition: 20 mM Tris-HCl, 100 mM NaCl, 5 mM MgCl2, 5 mM MnCl2, 20 mM beta Glycerophosphate, 0.2 mM Na3VO4, 1X protease inhibitor cocktail (Roche), pH 7.5) using a syringe fitted with a 26G needle passing through it several times till homogeneity. The protein content of the ER homogenate was estimated by the BCA method and aliquots were stored at -80 °C for further use. […]

THP1 cells = system: THP1 cells; set-up: method as in PMID 26646986; settings: cited from earlier work

Sequence of HAQ variant of human STING (Q86WV6 whole entry R71H/G230A/R293Q): as the sequence (Q86WV6 whole entry R71H/G230A/R293Q) above

SMILES: O=C(NCc1ccco1)c1ccc2c(c1)N(Cc1c(F)cccc1Cl)C(=O)CS2 [Compound G10, 4-(2-Chloro-6-fluorobenzyl)-N-(furan-2-ylmethyl)-3-oxo-3,4-dihydro-2H-benzo[b][1,4]thiazine-6-carboxamide]
- activity against the HAQ variant [1]: less active
- phosphorylation of STING and IRF3 (pSTING, pIRF3) in THP1 cells (HAQ STING (THP-1 cells)): unable to detect either pSTING or pIRF3
- solubility [2]: 20 µM (≈ 8.62 µg/mL)
- phosphorylation of STING and IRF3 in THP1-R232 cells [3]: led to phosphorylation of STING and IRF3
- formation of pSTING by TBK1, ER fraction with full length R232 STING [4]: activated
- activation of IRF3 or NFκB linked reporters in THP1 (THP1 cells): unable to activate
